According to patent US20240158412A1 (Faxian Therapeutics, LLC, priority 2021, published 2024):
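Note: fluorescence intensity readout of USP7 enzymatic activity, reaction incubated 90 min at room temperature.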

What follows are molecules tested against USP7 (Homo sapiens, UniProt Q93009) (assay: biochemical).
Chain of USP7 (Q93009 whole entry): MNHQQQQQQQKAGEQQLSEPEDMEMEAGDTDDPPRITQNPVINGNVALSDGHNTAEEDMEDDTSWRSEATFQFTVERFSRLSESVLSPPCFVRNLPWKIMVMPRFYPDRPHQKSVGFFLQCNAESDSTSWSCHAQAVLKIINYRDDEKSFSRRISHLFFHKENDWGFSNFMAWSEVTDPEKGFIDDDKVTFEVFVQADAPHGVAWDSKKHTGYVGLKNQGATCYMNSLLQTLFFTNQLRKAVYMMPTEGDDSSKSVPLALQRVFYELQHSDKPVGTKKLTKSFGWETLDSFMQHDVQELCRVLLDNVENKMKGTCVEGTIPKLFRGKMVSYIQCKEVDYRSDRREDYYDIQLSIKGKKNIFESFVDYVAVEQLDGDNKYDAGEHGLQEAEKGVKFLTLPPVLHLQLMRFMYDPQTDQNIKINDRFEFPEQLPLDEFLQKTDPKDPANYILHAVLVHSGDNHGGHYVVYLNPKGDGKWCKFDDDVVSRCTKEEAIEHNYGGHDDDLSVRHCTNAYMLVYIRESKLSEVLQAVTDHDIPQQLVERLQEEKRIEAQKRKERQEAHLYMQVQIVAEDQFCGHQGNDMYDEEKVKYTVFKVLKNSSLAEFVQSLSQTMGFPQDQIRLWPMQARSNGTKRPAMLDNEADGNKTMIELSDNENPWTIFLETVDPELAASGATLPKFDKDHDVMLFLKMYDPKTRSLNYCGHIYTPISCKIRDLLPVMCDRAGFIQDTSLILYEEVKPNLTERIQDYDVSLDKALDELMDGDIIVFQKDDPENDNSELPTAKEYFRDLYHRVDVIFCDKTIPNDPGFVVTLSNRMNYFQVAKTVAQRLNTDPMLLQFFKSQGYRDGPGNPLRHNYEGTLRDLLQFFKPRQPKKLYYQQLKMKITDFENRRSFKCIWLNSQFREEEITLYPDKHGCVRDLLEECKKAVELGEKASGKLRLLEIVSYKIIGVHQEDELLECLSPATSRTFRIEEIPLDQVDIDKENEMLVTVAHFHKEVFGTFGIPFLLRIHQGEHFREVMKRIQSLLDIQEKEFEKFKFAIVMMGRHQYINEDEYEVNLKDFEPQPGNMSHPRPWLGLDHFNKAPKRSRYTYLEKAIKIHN
For `O=c1n(Cc2cc3nccc(-c4cc(Cl)cc5c4N([C@H]4CCNC4)CCC5)c3s2)nc2n1CCC2` [Example 68, (S)-2-((7-(6-chloro-1-(pyrrolidin-3-yl)-1,2,3,4-tetrahydroquinolin-8-yl)thieno[3,2-b]pyridin-2-yl)methyl)-6,7-dihydro-2H-pyrrolo[2,1-c][1,2,4]triazol-3(5H)-one], the IC50 was < 10 nM.
In the case of `O=c1ccn(CC2(C(F)F)CC2)c(=O)n1Cc1cc2nccc(-c3cc(Cl)cc4c3N([C@H]3CCNC3)CCC4)c2s1` [Example 69, (S)-3-((7-(6-chloro-1-(pyrrolidin-3-yl)-1,2,3,4-tetrahydroquinolin-8-yl)thieno[3,2-b]pyridin-2-yl)methyl)-1-((1-(difluoromethyl)cyclopropyl)methyl)pyrimidine-2,4(1H,3H)-dione], the IC50 is reported as < 10 nM.
For `N#CC1(Cn2ccc(=O)n(Cc3cc4nccc(-c5cc(Cl)cc6c5N([C@H]5CCNC5)CCC6)c4s3)c2=O)CC1` [Example 70, (S)-1-((3-((7-(6-chloro-1-(pyrrolidin-3-yl)-1,2,3,4-tetrahydroquinolin-8-yl)thieno[3,2-b]pyridin-2-yl)methyl)-2,4-dioxo-3,4-dihydropyrimidin-1(2H)-yl)methyl)cyclopropanecarbonitrile], the IC50 was < 10 nM.
In the case of `O=C1c2ccccc2CN1Cc1cc2nccc(-c3cc(Cl)cc4c3N([C@H]3CCNC3)CCC4)c2s1` [Example 71, (S)-2-((7-(6-chloro-1-(pyrrolidin-3-yl)-1,2,3,4-tetrahydroquinolin-8-yl)thieno[3,2-b]pyridin-2-yl)methyl)isoindolin-1-one], the IC50 is reported as 101 to 1000 nM.
For `O=c1ccn(C2CC2)c(=O)n1Cc1cc2nccc(-c3cc(Cl)cc4c3N([C@H]3CCNC3)CCC4)c2s1` [Example 72, (S)-3-((7-(6-chloro-1-(pyrrolidin-3-yl)-1,2,3,4-tetrahydroquinolin-8-yl)thieno[3,2-b]pyridin-2-yl)methyl)-1-cyclopropylpyrimidine-2,4(1H,3H)-dione], the IC50 was < 10 nM.
With `O=C1COC(=O)N1Cc1cc2nccc(-c3cc(Cl)cc4c3N([C@H]3CCNC3)CCC4)c2s1` [Example 73, (S)-3-((7-(6-chloro-1-(pyrrolidin-3-yl)-1,2,3,4-tetrahydroquinolin-8-yl)thieno[3,2-b]pyridin-2-yl)methyl)oxazolidine-2,4-dione] the IC50 was < 10 nM.
With `CN1CC(=O)N(Cc2cc3nccc(-c4cc(Cl)cc5c4N([C@H]4CCNC4)CCC5)c3s2)C1=O` [Example 74, (S)-3-((7-(6-chloro-1-(pyrrolidin-3-yl)-1,2,3,4-tetrahydroquinolin-8-yl)thieno[3,2-b]pyridin-2-yl)methyl)-1-methylimidazolidine-2,4-dione] the IC50 was < 10 nM.
In the case of `O=c1ccn(C2CC(F)(F)C2)c(=O)n1Cc1cc2nccc(-c3cc(Cl)cc4c3N([C@H]3CCNC3)CCC4)c2s1` [Example 75], the IC50 is reported as < 10 nM.
For `CN1CCC(=O)N(Cc2cc3nccc(-c4cc(Cl)cc5c4N([C@H]4CCNC4)CCC5)c3s2)C1=O` [Example 76, (S)-3-((7-(6-chloro-1-(pyrrolidin-3-yl)-1,2,3,4-tetrahydroquinolin-8-yl)thieno[3,2-b]pyridin-2-yl)methyl)-1-methyldihydropyrimidine-2,4(1H,3H)-dione], the IC50 was < 10 nM.
`O=C1CCN(CC(F)(F)F)C(=O)N1Cc1cc2nccc(-c3cc(Cl)cc4c3N([C@H]3CCNC3)CCC4)c2s1` [Example 77, (S)-3-((7-(6-chloro-1-(pyrrolidin-3-yl)-1,2,3,4-tetrahydroquinolin-8-yl)thieno[3,2-b]pyridin-2-yl)methyl)-1-(2,2,2-trifluoroethyl)dihydropyrimidine-2,4(1H,3H)-dione] was tested, and the IC50 was < 10 nM.
For `O=c1ccn(CC(F)F)c(=O)n1Cc1cc2nccc(-c3cc(C(F)(F)F)cc4c3N([C@H]3CCNC3)CCC4)c2s1` [Example 81, (S)-1-(2,2-difluoroethyl)-3-((7-(1-(pyrrolidin-3-yl)-6-(trifluoromethyl)-1,2,3,4-tetrahydroquinolin-8-yl)thieno[3,2-b]pyridin-2-yl)methyl)pyrimidine-2,4(1H,3H)-dione], the IC50 was < 10 nM.
In the case of `N#Cc1cc2c(c(-c3ccnc4cc(CN5C(=O)CCC5=O)sc34)c1)N([C@H]1CCNC1)CCC2` [Example 82, (S)-8-(2-((2,5-dioxopyrrolidin-1-yl)methyl)thieno[3,2-b]pyridin-7-yl)-1-(pyrrolidin-3-yl)-1,2,3,4-tetrahydroquinoline-6-carbonitrile], the IC50 is reported as < 10 nM.
For `N#Cc1cc2c(c(-c3ccnc4cc(Cn5c(=O)ccn(CC(F)(F)F)c5=O)sc34)c1)N([C@H]1CCNC1)CCC2` [Example 83, (S)-8-(2-((2,6-dioxo-3-(2,2,2-trifluoroethyl)-2,3-dihydropyrimidin-1(6H)-yl)methyl)thieno[3,2-b]pyridin-7-yl)-1-(pyrrolidin-3-yl)-1,2,3,4-tetrahydroquinoline-6-carbonitrile], the IC50 was < 10 nM.
In the case of `CCN1CC[C@H](N2CCCc3cc(C#N)cc(-c4ccnc5cc(Cn6c(=O)ccn(CC(F)(F)F)c6=O)sc45)c32)C1` [Example 84, (S)-8-(2-((2,6-dioxo-3-(2,2,2-trifluoroethyl)-2,3-dihydropyrimidin-1(6H)-yl)methyl)thieno[3,2-b]pyridin-7-yl)-1-(1-ethylpyrrolidin-3-yl)-1,2,3,4-tetrahydroquinoline-6-carbonitrile], the IC50 is reported as < 10 nM.
`CO[C@H]1C[C@@H](N2CC[C@H](N3CCCc4cc(C#N)cc(-c5ccnc6cc(Cn7c(=O)ccn(CC(F)(F)F)c7=O)sc56)c43)C2)C1` [Example 85, 8-(2-((2,6-dioxo-3-(2,2,2-trifluoroethyl)-2,3-dihydropyrimidin-1(6H)-yl)methyl)thieno[3,2-b]pyridin-7-yl)-1-((S)-1-((1s,3R)-3-methoxycyclobutyl)pyrrolidin-3-yl)-1,2,3,4-tetrahydroquinoline-6-carbonitrile] was tested, and the IC50 was 10 to 100 nM.
For `N#Cc1cc2c(c(-c3ccnc4cc(Cn5c(=O)ccn(CC(F)(F)F)c5=O)sc34)c1)N([C@H]1CCN(C3CCC3)C1)CCC2` [Example 86, (S)-1-(1-cyclobutylpyrrolidin-3-yl)-8-(2-((2,6-dioxo-3-(2,2,2-trifluoroethyl)-2,3-dihydropyrimidin-1(6H)-yl)methyl)thieno[3,2-b]pyridin-7-yl)-1,2,3,4-tetrahydroquinoline-6-carbonitrile], the IC50 was 10 to 100 nM.
`Cn1ccc(=O)n(Cc2cc3nccc(-c4cc(C#N)cc5c4N([C@H]4CCNC4)CCC5)c3s2)c1=O` [Example 87, (S)-8-(2-((3-methyl-2,6-dioxo-2,3-dihydropyrimidin-1(6H)-yl)methyl)thieno[3,2-b]pyridin-7-yl)-1-(pyrrolidin-3-yl)-1,2,3,4-tetrahydroquinoline-6-carbonitrile] was tested, and the IC50 was < 10 nM.
For `N#Cc1cc2c(c(-c3ccnc4cc(Cn5c(=O)ccn(C6CC6)c5=O)sc34)c1)N([C@H]1CCNC1)CCC2` [Example 88, (S)-8-(2-((3-cyclopropyl-2,6-dioxo-2,3-dihydropyrimidin-1(6H)-yl)methyl)thieno[3,2-b]pyridin-7-yl)-1-(pyrrolidin-3-yl)-1,2,3,4-tetrahydroquinoline-6-carbonitrile], the IC50 was < 10 nM.
In the case of `CC(F)(F)Cn1ccc(=O)n(Cc2cc3nccc(-c4cc(C#N)cc5c4N([C@H]4CCNC4)CCC5)c3s2)c1=O` [Example 89, (S)-8-(2-((3-(2,2-difluoropropyl)-2,6-dioxo-2,3-dihydropyrimidin-1(6H)-yl)methyl)thieno[3,2-b]pyridin-7-yl)-1-(pyrrolidin-3-yl)-1,2,3,4-tetrahydroquinoline-6-carbonitrile], the IC50 is reported as < 10 nM.
With `O=c1ccn(CC(F)(F)F)c(=O)n1Cc1cc2ncnc(-c3cc(Cl)cc4c3N([C@H]3CCNC3)CCC4)c2s1` [Example 91, (S)-3-((4-(6-chloro-1-(pyrrolidin-3-yl)-1,2,3,4-tetrahydroquinolin-8-yl)thieno[3,2-d]pyrimidin-6-yl)methyl)-1-(2,2,2-trifluoroethyl)pyrimidine-2,4(1H,3H)-dione] the IC50 was < 10 nM.
With `N#Cc1cc2c(c(-c3ncnc4cc(Cn5c(=O)ccn(CC(F)(F)F)c5=O)sc34)c1)N([C@H]1CCNC1)CCC2` [Example 92, (S)-8-(6-((2,6-dioxo-3-(2,2,2-trifluoroethyl)-2,3-dihydropyrimidin-1(6H)-yl)methyl)thieno[3,2-d]pyrimidin-4-yl)-1-(pyrrolidin-3-yl)-1,2,3,4-tetrahydroquinoline-6-carbonitrile] the IC50 was < 10 nM.
For `N#Cc1cc2c(c(-c3ncnc4cc(Cn5c(=O)ccn(CC(F)(F)F)c5=O)sc34)c1)N([C@@H]1CCNC1)CCC2` [Example 93, (R)-8-(6-((2,6-dioxo-3-(2,2,2-trifluoroethyl)-2,3-dihydropyrimidin-1(6H)-yl)methyl)thieno[3,2-d]pyrimidin-4-yl)-1-(pyrrolidin-3-yl)-1,2,3,4-tetrahydroquinoline-6-carbonitrile], the IC50 was < 10 nM.
With `COCCn1ccc(=O)n(Cc2cc3nccc(-c4cc(Cl)cc5c4N([C@@H]4CCNC4)CCC5)c3s2)c1=O` [Example 100, (R)-3-((7-(6-chloro-1-(pyrrolidin-3-yl)-1,2,3,4-tetrahydroquinolin-8-yl)thieno[3,2-b]pyridin-2-yl)methyl)-1-(2-methoxyethyl)pyrimidine-2,4(1H,3H)-dione] the IC50 was < 10 nM.
In the case of `O=c1ccn(CC(F)F)c(=O)n1Cc1cc2nccc(-c3cc(Cl)cc4c3N([C@H]3CCNC3)CCC4)c2s1` [Example 101, (S)-3-((7-(6-chloro-1-(pyrrolidin-3-yl)-1,2,3,4-tetrahydroquinolin-8-yl)thieno[3,2-b]pyridin-2-yl)methyl)-1-(2,2-difluoroethyl)pyrimidine-2,4(1H,3H)-dione], the IC50 is reported as < 10 nM.
`CC(C)CN1CC[C@H](N2CCCc3cc(Cl)cc(-c4ccnc5cc(CN6C(=O)CCC6=O)sc45)c32)C1` [Example 102, (S)-1-((7-(6-chloro-1-(1-isobutylpyrrolidin-3-yl)-1,2,3,4-tetrahydroquinolin-8-yl)thieno[3,2-b]pyridin-2-yl)methyl)pyrrolidine-2,5-dione] gave an IC50 of 10 to 100 nM.
In the case of `CC(F)(F)Cn1ccc(=O)n(Cc2cc3nccc(-c4cc(Cl)cc5c4N([C@H]4CCNC4)CCC5)c3s2)c1=O` [Example 103, (S)-3-((7-(6-chloro-1-(pyrrolidin-3-yl)-1,2,3,4-tetrahydroquinolin-8-yl)thieno[3,2-b]pyridin-2-yl)methyl)-1-(2,2-difluoropropyl)pyrimidine-2,4(1H,3H)-dione], the IC50 is reported as < 10 nM.
